# System: 186277-243-T-J2-PDC complex spheroid viability
# Test: Anticancer human tumor 186277-243-T-J2-PDC patient-derived colon adenocarcinoma cell line growth inhibition [POLQ]
# Conditions: for IC50: curve of first compound; for viability, T/C: stronger effect = lower value
# Outline: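 Growth inhibition in 3D: complex spheroids (tumor PDC, HUVEC, MSC) treated with POLQ inhibitor combinations; where Cmax unknown, highest tested concentration 10 microM, except SN-38 at 1 microM.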
# [1] = second compound 0.0316 µM, first compound 0.0316 µM
# [2] = second compound 0.0316 µM, first compound 0.1 µM
# [3] = second compound 0.0316 µM, first compound 0.316 µM
# [4] = second compound 0.0316 µM, first compound 1 µM
# [5] = second compound 0.1 µM, first compound 0.0316 µM
# [6] = second compound 0.1 µM, first compound 0.1 µM
# [7] = second compound 0.1 µM, first compound 0.316 µM
# [8] = second compound 0.1 µM, first compound 1 µM
# [9] = second compound 0.316 µM, first compound 0.0316 µM
# [10] = second compound 0.316 µM, first compound 0.1 µM
# [11] = second compound 0.316 µM, first compound 0.316 µM
# [12] = second compound 0.316 µM, first compound 1 µM
# [13] = second compound 1 µM, first compound 0.0316 µM
# [14] = second compound 1 µM, first compound 0.1 µM
# [15] = second compound 1 µM, first compound 0.316 µM
# [16] = second compound 1 µM, first compound 1 µM
# [17] = second compound 3.16 µM, first compound 0.0316 µM
# [18] = second compound 3.16 µM, first compound 0.1 µM
# [19] = second compound 3.16 µM, first compound 0.316 µM
# [20] = second compound 3.16 µM, first compound 1 µM
# [21] = second compound 10 µM, first compound 0.0316 µM
# [22] = second compound 10 µM, first compound 0.1 µM
# [23] = second compound 10 µM, first compound 0.316 µM
# [24] = second compound 10 µM, first compound 1 µM
# 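Further: spheroids exposed to compounds for seven days.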
# 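Wherever viability, T/C is given: 100% = DMSO vehicle control viability.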
smiles,measurement,setting,value
CCc1c2c(nc3ccc(O)cc13)-c1cc3c(c(=O)n1C2)COC(=O)[C@]3(O)CC + COC1C(OC(N)=O)C(O)C(Oc2ccc3c(O)c(NC(=O)c4ccc(O)c(CC=C(C)C)c4)c(=O)oc3c2C)OC1(C)C,IC50,second compound 0.0316 µM,6.67 nM
same,IC50,second compound 0.1 µM,6.31 nM
same,IC50,second compound 0.316 µM,6.22 nM
same,IC50,second compound 1 µM,5.81 nM
same,IC50,second compound 3.16 µM,4.06 nM
same,IC50,second compound 10 µM,4.2 nM
same,"viability, T/C","second compound 0.0316 µM, first compound 0.00316 µM",60.8%
same,"viability, T/C","second compound 0.0316 µM, first compound 0.01 µM",44.3%
same,"viability, T/C",[1],21.4%
same,"viability, T/C",[2],11.2%
same,"viability, T/C",[3],8.38%
same,"viability, T/C",[4],6.45%
same,"viability, T/C","second compound 0.1 µM, first compound 0.00316 µM",65%
same,"viability, T/C","second compound 0.1 µM, first compound 0.01 µM",39.7%
same,"viability, T/C",[5],21.9%
same,"viability, T/C",[6],10.4%
same,"viability, T/C",[7],8.32%
same,"viability, T/C",[8],6.78%
same,"viability, T/C","second compound 0.316 µM, first compound 0.00316 µM",61.1%
same,"viability, T/C","second compound 0.316 µM, first compound 0.01 µM",42%
same,"viability, T/C",[9],22.4%
same,"viability, T/C",[10],10.3%
same,"viability, T/C",[11],7.76%
same,"viability, T/C",[12],6.8%
same,"viability, T/C","second compound 1 µM, first compound 0.00316 µM",61.8%
same,"viability, T/C","second compound 1 µM, first compound 0.01 µM",39.2%
same,"viability, T/C",[13],21.6%
same,"viability, T/C",[14],10.2%
same,"viability, T/C",[15],8.22%
same,"viability, T/C",[16],6.39%
same,"viability, T/C","second compound 3.16 µM, first compound 0.00316 µM",53.1%
same,"viability, T/C","second compound 3.16 µM, first compound 0.01 µM",38.8%
same,"viability, T/C",[17],19.7%
same,"viability, T/C",[18],9.79%
same,"viability, T/C",[19],7.9%
same,"viability, T/C",[20],6.76%
same,"viability, T/C","second compound 10 µM, first compound 0.00316 µM",52.9%
same,"viability, T/C","second compound 10 µM, first compound 0.01 µM",41.4%
same,"viability, T/C",[21],19%
same,"viability, T/C",[22],8.88%
same,"viability, T/C",[23],8.76%
same,"viability, T/C",[24],6.74%
CC(=O)O[C@H]1C(=O)[C@@]2(C)[C@H]([C@H](OC(=O)c3ccccc3)[C@]3(O)C[C@H](OC(=O)[C@H](O)[C@@H](NC(=O)c4ccccc4)c4ccccc4)C(C)=C1C3(C)C)[C@]1(OC(C)=O)CO[C@@H]1C[C@@H]2O + Nc1ccc(C#CCN(C(=O)Cc2ncc(C(F)(F)F)cc2C(F)(F)F)c2ccc(F)cc2)nn1,IC50,second compound 0.0316 µM,< 9.49 nM
same,IC50,second compound 0.1 µM,< 9.49 nM
same,IC50,second compound 0.316 µM,< 9.49 nM
same,IC50,second compound 1 µM,< 9.49 nM
same,IC50,second compound 3.16 µM,< 9.49 nM
same,IC50,second compound 10 µM,< 9.49 nM
same,"viability, T/C","second compound 0.0316 µM, first compound 0.00949 µM",42.4%
same,"viability, T/C","second compound 0.0316 µM, first compound 0.03 µM",12.5%
same,"viability, T/C","second compound 0.0316 µM, first compound 0.0949 µM",7.75%
same,"viability, T/C","second compound 0.0316 µM, first compound 0.3 µM",6.21%
same,"viability, T/C","second compound 0.0316 µM, first compound 0.949 µM",5.52%
same,"viability, T/C","second compound 0.0316 µM, first compound 3 µM",8.14%
same,"viability, T/C","second compound 0.1 µM, first compound 0.00949 µM",41.4%
same,"viability, T/C","second compound 0.1 µM, first compound 0.03 µM",10.8%
same,"viability, T/C","second compound 0.1 µM, first compound 0.0949 µM",7.09%
same,"viability, T/C","second compound 0.1 µM, first compound 0.3 µM",5.96%
same,"viability, T/C","second compound 0.1 µM, first compound 0.949 µM",6.1%
same,"viability, T/C","second compound 0.1 µM, first compound 3 µM",5.64%
same,"viability, T/C","second compound 0.316 µM, first compound 0.00949 µM",41.7%
same,"viability, T/C","second compound 0.316 µM, first compound 0.03 µM",11.7%
same,"viability, T/C","second compound 0.316 µM, first compound 0.0949 µM",7.17%
same,"viability, T/C","second compound 0.316 µM, first compound 0.3 µM",6.38%
same,"viability, T/C","second compound 0.316 µM, first compound 0.949 µM",5.86%
same,"viability, T/C","second compound 0.316 µM, first compound 3 µM",6.59%
same,"viability, T/C","second compound 1 µM, first compound 0.00949 µM",36.1%
same,"viability, T/C","second compound 1 µM, first compound 0.03 µM",13.4%
same,"viability, T/C","second compound 1 µM, first compound 0.0949 µM",6.63%
same,"viability, T/C","second compound 1 µM, first compound 0.3 µM",5.56%
same,"viability, T/C","second compound 1 µM, first compound 0.949 µM",6.34%
same,"viability, T/C","second compound 1 µM, first compound 3 µM",5.24%
same,"viability, T/C","second compound 3.16 µM, first compound 0.00949 µM",28.4%
same,"viability, T/C","second compound 3.16 µM, first compound 0.03 µM",10.8%
same,"viability, T/C","second compound 3.16 µM, first compound 0.0949 µM",7.02%
same,"viability, T/C","second compound 3.16 µM, first compound 0.3 µM",6.36%
same,"viability, T/C","second compound 3.16 µM, first compound 0.949 µM",6.4%
same,"viability, T/C","second compound 3.16 µM, first compound 3 µM",4.96%
same,"viability, T/C","second compound 10 µM, first compound 0.00949 µM",21.8%
same,"viability, T/C","second compound 10 µM, first compound 0.03 µM",8.01%
same,"viability, T/C","second compound 10 µM, first compound 0.0949 µM",6.35%
same,"viability, T/C","second compound 10 µM, first compound 0.3 µM",5.6%
same,"viability, T/C","second compound 10 µM, first compound 0.949 µM",7.72%
same,"viability, T/C","second compound 10 µM, first compound 3 µM",5.68%
C=CC(=O)N1CCN(c2nc(=O)n(-c3c(C)ccnc3C(C)C)c3nc(-c4c(O)cccc4F)c(F)cc23)C(C)C1 (stereo unspecified) + Nc1ccc(C#CCN(C(=O)Cc2ncc(C(F)(F)F)cc2C(F)(F)F)c2ccc(F)cc2)nn1,IC50,second compound 0.0316 µM,> 10000 nM
same,IC50,second compound 0.1 µM,> 10000 nM
same,IC50,second compound 0.316 µM,> 10000 nM
same,IC50,second compound 1 µM,> 10000 nM
same,IC50,second compound 3.16 µM,> 10000 nM
same,IC50,second compound 10 µM,> 10000 nM
same,"viability, T/C",[1],98.7%
same,"viability, T/C",[2],84.2%
same,"viability, T/C",[3],96.2%
same,"viability, T/C",[4],83.5%
same,"viability, T/C","second compound 0.0316 µM, first compound 3.16 µM",115%
same,"viability, T/C","second compound 0.0316 µM, first compound 10 µM",101%
same,"viability, T/C",[5],93.1%
same,"viability, T/C",[6],94.5%
same,"viability, T/C",[7],102%
same,"viability, T/C",[8],103%
same,"viability, T/C","second compound 0.1 µM, first compound 3.16 µM",95.1%
same,"viability, T/C","second compound 0.1 µM, first compound 10 µM",112%
same,"viability, T/C",[9],91%
same,"viability, T/C",[10],106%
same,"viability, T/C",[11],100%
same,"viability, T/C",[12],96.1%
same,"viability, T/C","second compound 0.316 µM, first compound 3.16 µM",92.6%
same,"viability, T/C","second compound 0.316 µM, first compound 10 µM",100%
same,"viability, T/C",[13],91.8%
same,"viability, T/C",[14],101%
same,"viability, T/C",[15],90%
same,"viability, T/C",[16],87.1%
same,"viability, T/C","second compound 1 µM, first compound 3.16 µM",96%
same,"viability, T/C","second compound 1 µM, first compound 10 µM",104%
same,"viability, T/C",[17],97.6%
same,"viability, T/C",[18],92.3%
same,"viability, T/C",[19],97.7%
same,"viability, T/C",[20],102%
same,"viability, T/C","second compound 3.16 µM, first compound 3.16 µM",99.3%
same,"viability, T/C","second compound 3.16 µM, first compound 10 µM",101%
same,"viability, T/C",[21],112%
same,"viability, T/C",[22],99.9%
same,"viability, T/C",[23],107%
same,"viability, T/C",[24],101%
same,"viability, T/C","second compound 10 µM, first compound 3.16 µM",95.9%
same,"viability, T/C","second compound 10 µM, first compound 10 µM",105%
